Laboratory results published in ChEMBL document CHEMBL5620387, “Discovery of 4'-trifluoromethylchalcones as novel, potent and selective hCYP1B1 inhibitors without concomitant AhR activation” (Eur J Med Chem, 2023).

Tests used:
[1] = target: T1, Cytochrome P450 1B1 (Homo sapiens, UniProt Q16678); assay: Inhibition of human recombinant CYP1B1 assessed as fluorescence of resorufin
T1 sequence (Q16678 whole entry): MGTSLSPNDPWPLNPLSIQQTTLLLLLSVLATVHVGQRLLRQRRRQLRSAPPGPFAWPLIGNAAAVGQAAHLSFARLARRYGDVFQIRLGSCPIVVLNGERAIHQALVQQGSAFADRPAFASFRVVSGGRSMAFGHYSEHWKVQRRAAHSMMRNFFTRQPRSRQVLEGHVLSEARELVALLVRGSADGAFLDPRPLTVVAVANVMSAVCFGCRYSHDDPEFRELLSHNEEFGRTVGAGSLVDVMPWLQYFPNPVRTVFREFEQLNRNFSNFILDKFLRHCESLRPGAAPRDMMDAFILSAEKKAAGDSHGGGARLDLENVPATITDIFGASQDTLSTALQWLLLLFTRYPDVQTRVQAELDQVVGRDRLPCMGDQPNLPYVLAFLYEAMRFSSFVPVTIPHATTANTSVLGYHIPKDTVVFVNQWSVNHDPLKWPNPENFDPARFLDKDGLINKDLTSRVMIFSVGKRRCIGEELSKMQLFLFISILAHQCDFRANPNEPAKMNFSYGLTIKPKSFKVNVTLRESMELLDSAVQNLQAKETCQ

[2] = target: T2, Cytochrome P450 1A2 (Homo sapiens, UniProt P05177); assay: Inhibition of human recombinant CYP1A2 assessed as fluorescence of resorufin; format: ADME
T2 sequence (P05177 whole entry): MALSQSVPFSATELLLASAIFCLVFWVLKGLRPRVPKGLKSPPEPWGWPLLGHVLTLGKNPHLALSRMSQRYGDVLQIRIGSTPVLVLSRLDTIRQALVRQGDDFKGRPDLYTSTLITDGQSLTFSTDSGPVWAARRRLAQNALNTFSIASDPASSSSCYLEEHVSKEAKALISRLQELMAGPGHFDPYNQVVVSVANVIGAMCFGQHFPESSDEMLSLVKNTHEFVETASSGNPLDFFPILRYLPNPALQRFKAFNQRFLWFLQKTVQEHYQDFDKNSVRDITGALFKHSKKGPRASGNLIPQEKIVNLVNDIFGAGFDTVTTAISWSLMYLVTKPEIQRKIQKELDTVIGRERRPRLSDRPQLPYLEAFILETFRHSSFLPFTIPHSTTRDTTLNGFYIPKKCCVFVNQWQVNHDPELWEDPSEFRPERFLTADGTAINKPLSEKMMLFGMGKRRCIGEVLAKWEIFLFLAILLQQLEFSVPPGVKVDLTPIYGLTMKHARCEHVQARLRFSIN

[3] = target: T3, Aryl hydrocarbon receptor (Homo sapiens, UniProt P35869); assay: Agonist activity at aryl hydrocarbon receptor (unknown origin) expressed in HEK293T cells assessed as luciferase activity at 10 uM measured after 24 hrs; format: toxicity, cell-based
T3 sequence (P35869 whole entry): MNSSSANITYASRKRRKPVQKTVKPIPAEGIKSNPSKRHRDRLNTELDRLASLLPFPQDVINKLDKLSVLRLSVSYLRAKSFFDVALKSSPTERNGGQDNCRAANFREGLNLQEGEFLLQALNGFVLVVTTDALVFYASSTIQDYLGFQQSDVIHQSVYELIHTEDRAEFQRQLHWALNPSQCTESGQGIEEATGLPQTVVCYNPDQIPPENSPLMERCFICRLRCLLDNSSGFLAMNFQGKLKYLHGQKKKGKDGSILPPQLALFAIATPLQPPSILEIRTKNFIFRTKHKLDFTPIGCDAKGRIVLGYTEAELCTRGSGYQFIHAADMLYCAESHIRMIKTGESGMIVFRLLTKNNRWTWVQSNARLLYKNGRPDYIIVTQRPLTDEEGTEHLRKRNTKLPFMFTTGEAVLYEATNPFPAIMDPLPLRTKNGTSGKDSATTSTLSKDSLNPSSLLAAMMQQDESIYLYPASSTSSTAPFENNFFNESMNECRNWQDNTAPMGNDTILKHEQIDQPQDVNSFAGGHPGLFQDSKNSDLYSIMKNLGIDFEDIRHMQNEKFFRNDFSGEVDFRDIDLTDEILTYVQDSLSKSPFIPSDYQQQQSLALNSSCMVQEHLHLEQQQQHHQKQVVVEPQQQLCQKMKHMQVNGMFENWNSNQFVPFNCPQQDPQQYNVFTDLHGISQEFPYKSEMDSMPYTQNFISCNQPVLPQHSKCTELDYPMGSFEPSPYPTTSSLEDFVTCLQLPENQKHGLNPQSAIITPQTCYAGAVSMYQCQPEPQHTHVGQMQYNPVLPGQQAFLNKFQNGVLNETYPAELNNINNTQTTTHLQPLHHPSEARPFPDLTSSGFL

[4] = target: T3, Aryl hydrocarbon receptor; assay: Antagonist activity at aryl hydrocarbon receptor (unknown origin) expressed in HEK293T cells assessed as luciferase activity at 10 uM measured after 24 hrs; format: toxicity, cell-based
[5] = Metabolic stability in human liver microsomes assessed as relative remaining concentration measured after 60 mins by LC-UV analysis; format: ADME, Microsome; details: read-out: INH
[6] = Metabolic stability in human liver microsomes assessed as half life measured after 60 mins by LC-UV analysis; format: ADME, Microsome
[7] = target: T2, Cytochrome P450 1A2; assay: Inhibition of human CYP1A2 in human liver microsomes by LC-MS/MS analysis; format: ADME, Microsome
[8] = target: T4, Cytochrome P450 2A6 (Homo sapiens, UniProt P11509); assay: Inhibition of human CYP2A6 in human liver microsomes by LC-MS/MS analysis; format: ADME, Microsome
T4 sequence (P11509 whole entry): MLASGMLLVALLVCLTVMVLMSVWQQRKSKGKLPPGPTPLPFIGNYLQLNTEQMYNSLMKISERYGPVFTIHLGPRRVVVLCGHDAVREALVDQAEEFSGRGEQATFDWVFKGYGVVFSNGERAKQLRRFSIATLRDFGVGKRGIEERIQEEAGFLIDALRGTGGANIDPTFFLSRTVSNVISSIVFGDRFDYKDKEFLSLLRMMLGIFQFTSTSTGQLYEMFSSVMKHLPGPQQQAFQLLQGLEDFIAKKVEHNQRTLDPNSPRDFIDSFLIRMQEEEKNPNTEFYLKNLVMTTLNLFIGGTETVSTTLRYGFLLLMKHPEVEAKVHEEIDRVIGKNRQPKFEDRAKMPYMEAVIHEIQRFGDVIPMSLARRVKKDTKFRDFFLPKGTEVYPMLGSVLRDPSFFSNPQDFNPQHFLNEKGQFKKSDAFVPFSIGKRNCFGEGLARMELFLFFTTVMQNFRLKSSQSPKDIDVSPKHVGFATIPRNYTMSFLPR

[9] = target: T5, Cytochrome P450 2C8 (Homo sapiens, UniProt P10632); assay: Inhibition of human CYP2C8 in human liver microsomes by LC-MS/MS analysis; format: ADME, Microsome
T5 sequence (P10632 whole entry): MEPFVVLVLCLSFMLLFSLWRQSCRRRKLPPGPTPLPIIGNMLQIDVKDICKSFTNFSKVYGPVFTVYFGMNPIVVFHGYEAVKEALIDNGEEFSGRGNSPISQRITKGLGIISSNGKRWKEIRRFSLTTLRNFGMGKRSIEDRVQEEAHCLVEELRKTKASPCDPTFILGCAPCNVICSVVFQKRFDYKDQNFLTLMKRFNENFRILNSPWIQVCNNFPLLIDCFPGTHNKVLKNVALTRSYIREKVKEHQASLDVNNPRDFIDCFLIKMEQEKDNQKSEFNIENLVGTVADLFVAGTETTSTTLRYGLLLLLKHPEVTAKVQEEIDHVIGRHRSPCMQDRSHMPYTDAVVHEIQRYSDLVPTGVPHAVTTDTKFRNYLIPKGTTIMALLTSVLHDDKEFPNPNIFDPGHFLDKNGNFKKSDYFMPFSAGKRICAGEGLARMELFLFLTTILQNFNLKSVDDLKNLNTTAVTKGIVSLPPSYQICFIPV

[10] = target: Cytochrome P450 2C9 (Homo sapiens, UniProt P11712); assay: Inhibition of human CYP2C9 in human liver microsomes by LC-MS/MS analysis; format: ADME, Microsome
[11] = target: Cytochrome P450 2C19 (Homo sapiens, UniProt P33261); assay: Inhibition of human CYP2C19 in human liver microsomes by LC-MS/MS analysis; format: ADME, Microsome
[12] = target: Cytochrome P450 2D6 (Homo sapiens, UniProt P10635); assay: Inhibition of human CYP2D6 in human liver microsomes by LC-MS/MS analysis; format: ADME, Microsome
[13] = target: Cytochrome P450 2E1 (Homo sapiens, UniProt P05181); assay: Inhibition of human CYP2E1 in human liver microsomes by LC-MS/MS analysis; format: ADME, Microsome
[14] = target: Cytochrome P450 3A4 (Homo sapiens, UniProt P08684); assay: Inhibition of human CYP3A4 measured after 3 mins incubation by fluorescence assay; format: ADME
[15] = target: T6, Cytochrome P450 1A1 (Homo sapiens, UniProt P04798); assay: Inhibition of human recombinant CYP1A1 assessed as fluorescence of resorufin; format: ADME
T6 sequence (P04798 whole entry): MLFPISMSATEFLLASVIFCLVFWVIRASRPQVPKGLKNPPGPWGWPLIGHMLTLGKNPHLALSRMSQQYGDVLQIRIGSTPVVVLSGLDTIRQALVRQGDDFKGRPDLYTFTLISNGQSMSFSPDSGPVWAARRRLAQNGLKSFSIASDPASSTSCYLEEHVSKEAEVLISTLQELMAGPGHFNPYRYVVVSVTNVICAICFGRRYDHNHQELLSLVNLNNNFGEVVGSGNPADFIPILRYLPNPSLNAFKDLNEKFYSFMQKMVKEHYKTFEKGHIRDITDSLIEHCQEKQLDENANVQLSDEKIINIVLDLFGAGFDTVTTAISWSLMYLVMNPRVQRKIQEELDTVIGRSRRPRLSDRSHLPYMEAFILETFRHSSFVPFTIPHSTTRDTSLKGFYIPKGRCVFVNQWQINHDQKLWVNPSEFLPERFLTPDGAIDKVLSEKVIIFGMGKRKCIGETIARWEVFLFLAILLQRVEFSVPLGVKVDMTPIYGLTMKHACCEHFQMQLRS

[16] = target: T1, Cytochrome P450 1B1; assay: Inhibition of human CYP1B1 overexpressed in CHO cells assessed as intracellular protein inhibition measured at 10 to 100 uM after 3 hrs; format: cell-based; details: dose 10-100 µM

Chain of Cytochrome P450 2E1 (P05181 whole entry): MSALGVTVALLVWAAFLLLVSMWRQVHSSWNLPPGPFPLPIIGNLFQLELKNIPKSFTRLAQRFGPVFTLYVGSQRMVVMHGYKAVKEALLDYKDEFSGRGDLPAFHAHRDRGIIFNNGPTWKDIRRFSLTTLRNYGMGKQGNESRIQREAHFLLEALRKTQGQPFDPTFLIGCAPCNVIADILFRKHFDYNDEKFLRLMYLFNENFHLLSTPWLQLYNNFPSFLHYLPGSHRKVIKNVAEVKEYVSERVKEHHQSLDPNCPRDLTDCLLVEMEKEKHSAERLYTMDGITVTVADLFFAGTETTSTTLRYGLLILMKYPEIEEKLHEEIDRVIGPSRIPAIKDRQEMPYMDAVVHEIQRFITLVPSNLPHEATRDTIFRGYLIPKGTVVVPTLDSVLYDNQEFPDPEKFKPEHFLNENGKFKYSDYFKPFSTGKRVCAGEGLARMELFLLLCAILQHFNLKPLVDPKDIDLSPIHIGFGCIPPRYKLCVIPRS
Chain of Cytochrome P450 2D6 (P10635 whole entry): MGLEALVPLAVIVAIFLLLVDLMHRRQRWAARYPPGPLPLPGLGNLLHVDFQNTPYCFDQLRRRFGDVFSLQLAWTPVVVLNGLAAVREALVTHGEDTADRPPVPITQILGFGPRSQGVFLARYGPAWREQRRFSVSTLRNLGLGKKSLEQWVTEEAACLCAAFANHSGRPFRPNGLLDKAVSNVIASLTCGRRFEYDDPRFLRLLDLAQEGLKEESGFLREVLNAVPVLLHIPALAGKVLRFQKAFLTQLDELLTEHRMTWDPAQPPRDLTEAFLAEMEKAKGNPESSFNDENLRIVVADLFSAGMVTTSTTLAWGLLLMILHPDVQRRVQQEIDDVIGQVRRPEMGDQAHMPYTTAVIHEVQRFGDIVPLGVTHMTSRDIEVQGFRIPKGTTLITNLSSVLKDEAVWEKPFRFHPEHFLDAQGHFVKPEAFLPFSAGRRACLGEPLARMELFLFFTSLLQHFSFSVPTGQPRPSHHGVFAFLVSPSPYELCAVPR
Chain of Cytochrome P450 2C9 (P11712 whole entry): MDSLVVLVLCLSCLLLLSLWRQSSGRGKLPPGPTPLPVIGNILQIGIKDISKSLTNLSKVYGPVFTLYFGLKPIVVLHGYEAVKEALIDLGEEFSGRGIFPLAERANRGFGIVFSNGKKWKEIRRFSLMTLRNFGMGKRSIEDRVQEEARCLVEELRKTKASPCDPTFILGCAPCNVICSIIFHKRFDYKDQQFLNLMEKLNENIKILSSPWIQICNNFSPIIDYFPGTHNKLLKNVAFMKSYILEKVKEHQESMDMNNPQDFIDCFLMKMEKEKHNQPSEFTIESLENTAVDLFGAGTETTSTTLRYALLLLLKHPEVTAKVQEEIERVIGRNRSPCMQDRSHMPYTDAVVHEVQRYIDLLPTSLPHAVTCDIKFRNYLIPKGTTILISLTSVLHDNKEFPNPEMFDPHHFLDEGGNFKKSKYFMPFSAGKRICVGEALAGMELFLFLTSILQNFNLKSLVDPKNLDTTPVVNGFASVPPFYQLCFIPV
Chain of Cytochrome P450 2C19 (P33261 whole entry): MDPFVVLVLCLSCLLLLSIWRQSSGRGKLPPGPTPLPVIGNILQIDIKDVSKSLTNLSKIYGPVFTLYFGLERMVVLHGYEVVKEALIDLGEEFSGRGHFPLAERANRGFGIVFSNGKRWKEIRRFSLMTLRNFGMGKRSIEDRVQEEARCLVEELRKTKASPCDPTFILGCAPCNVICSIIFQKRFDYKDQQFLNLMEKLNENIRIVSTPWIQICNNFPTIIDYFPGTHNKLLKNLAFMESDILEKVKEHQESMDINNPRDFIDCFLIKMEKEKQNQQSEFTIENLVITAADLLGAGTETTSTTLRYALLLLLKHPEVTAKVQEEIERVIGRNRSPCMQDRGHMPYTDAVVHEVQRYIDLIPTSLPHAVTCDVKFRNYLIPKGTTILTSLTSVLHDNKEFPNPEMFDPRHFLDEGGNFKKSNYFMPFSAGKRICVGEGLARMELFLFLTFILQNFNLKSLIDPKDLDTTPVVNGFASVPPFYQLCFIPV
Chain of Cytochrome P450 3A4 (P08684 whole entry): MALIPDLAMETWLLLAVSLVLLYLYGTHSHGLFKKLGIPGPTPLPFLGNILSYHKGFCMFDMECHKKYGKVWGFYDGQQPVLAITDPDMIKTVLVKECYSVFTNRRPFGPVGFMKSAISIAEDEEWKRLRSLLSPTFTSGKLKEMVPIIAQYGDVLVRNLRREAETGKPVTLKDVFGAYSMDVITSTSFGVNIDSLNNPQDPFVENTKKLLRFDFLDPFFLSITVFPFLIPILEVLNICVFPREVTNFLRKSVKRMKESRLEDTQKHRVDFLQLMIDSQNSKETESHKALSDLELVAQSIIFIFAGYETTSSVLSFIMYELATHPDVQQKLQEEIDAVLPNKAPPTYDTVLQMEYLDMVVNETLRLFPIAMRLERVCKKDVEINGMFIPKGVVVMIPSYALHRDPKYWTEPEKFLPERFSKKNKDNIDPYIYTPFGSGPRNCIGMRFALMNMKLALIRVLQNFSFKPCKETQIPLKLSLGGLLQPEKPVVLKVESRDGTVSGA

Row | Structure (SMILES) | IC50 [1] | IC50 [2] | further results
1 | CN(C)c1ccc(C(=O)/C=C/c2ccccc2)cc1 | 110 nM |  | 
2 | O=C(/C=C/c1ccccc1)c1ccc(Cl)cc1 | 43 nM |  | 
3 | O=C(/C=C/c1ccccc1)c1ccc([N+](=O)[O-])cc1 | 280 nM |  | 
4 | Cc1ccc(C(=O)/C=C/c2ccccc2)cc1 | 31 nM |  | 
5 | Nc1ccc(C(=O)/C=C/c2ccccc2)cc1 | 1060 nM |  | 
6 | O=C(/C=C/c1ccccc1)c1ccc(Br)cc1 | 36 nM |  | 
7 | COc1cc(O)c(Cl)cc1/C=C/C(=O)c1ccc(C(F)(F)F)cc1 |  | > 100 µM | Activity [3]: Active
8 | COc1cc(OC)c(/C=C/C(=O)c2ccc(C(F)(F)F)cc2)cc1Br |  | > 100 µM | 
9 | CCOc1ccc(/C=C/C(=O)c2ccc(C(F)(F)F)cc2)cc1 |  | > 100 µM | 
10 | COc1ccc(/C=C/C(=O)c2ccc(C(F)(F)F)cc2)cc1 |  | > 100 µM | 
11 | Cc1ccc(/C=C/C(=O)c2ccc(C(F)(F)F)cc2)c(C)c1 |  | > 100 µM | 
12 | COc1cc(OC)c(/C=C/C(=O)c2ccc(C(F)(F)F)cc2)cc1Cl |  | > 100 µM | Activity [4]: Active; remaining at 1 h [5]: 54.5%; half-life [6]: 64.5 min; IC50 [7]: > 100 µM; IC50 [8]: > 100 µM; IC50 [9]: > 100 µM; IC50 [10]: > 100 µM; IC50 [11]: > 100 µM; IC50 [12]: > 100 µM; IC50 [13]: > 100 µM; IC50 [14]: > 100 µM
13 | CCCOc1ccc(/C=C/C(=O)c2ccc(C(F)(F)F)cc2)c(OC)c1 |  | > 100 µM | 
14 | COc1cc(O)c(Br)cc1/C=C/C(=O)c1ccc(C(F)(F)F)cc1 |  | > 100 µM | 
15 | COc1cc(OC(C)=O)ccc1/C=C/C(=O)c1ccc(C(F)(F)F)cc1 |  | > 100 µM | 
16 | COc1cc(OC(=O)c2cccs2)ccc1/C=C/C(=O)c1ccc(C(F)(F)F)cc1 |  | > 100 µM | 
17 | O=C(/C=C/c1ccc(F)cc1)c1ccc(C(F)(F)F)cc1 |  | > 100 µM | 
18 | Cc1ccc(/C=C/C(=O)c2ccc(C(F)(F)F)cc2)cc1 |  | > 100 µM | 
19 | CCOc1ccc(/C=C/C(=O)c2ccc(C(F)(F)F)cc2)c(OC)c1 |  | > 100 µM | Activity [3]: Active
20 | COc1cc(O)ccc1/C=C/C(=O)c1ccc(C(F)(F)F)cc1 |  | > 100 µM | Activity [3]: Active; remaining at 1 h [5]: 21%; half-life [6]: 35.6 min
21 | O=C(/C=C/c1ccc(O)cc1)c1ccc(C(F)(F)F)cc1 |  | > 100 µM | 
22 | O=C(/C=C/c1ccc(F)cc1F)c1ccc(C(F)(F)F)cc1 |  | > 100 µM | 
23 | CCCOc1ccc(/C=C/C(=O)c2ccc(C(F)(F)F)cc2)cc1 |  | > 100 µM | 
24 | O=C(/C=C/c1ccccc1)c1ccc(C(F)(F)F)cc1 | 26.2 nM | > 100 µM | IC50 [15]: 274 nM
25 | COc1ccc(/C=C/C(=O)c2ccc(C(F)(F)F)cc2)c(OC)c1 | 4.72 nM | > 100 µM | IC50 [15]: 1690 nM; Activity [4]: Active; remaining at 1 h [5]: 11.8%; half-life [6]: 28.9 min
26 | O=C(/C=C/c1ccccc1)c1ccc(O)cc1 [4'-HYDROXYCHALCONE] | 1130 nM |  | 
27 | COc1ccc(C(=O)/C=C/c2ccccc2)cc1 [4'-METHOXYCHALCONE] | 180 nM |  | 
28 | O=c1cc(-c2ccccc2)oc2c1ccc1ccccc12 [ALPHA-NAPHTHOFLAVONE] |  |  | IC50 [15]: 7.41 nM; inhibition (INH) [16]: Dose-Dependent Effect
29 | O=C(/C=C/c1ccccc1)c1ccccc1 [CHALCONE] | 305 nM |  | 
30 | C[C@]12CC[C@H]3[C@@H](CCC4=CC(=O)CC[C@@]43C)[C@@H]1CC[C@@H]2O [TESTOSTERONE] |  |  | remaining at 1 h [5]: 43.7%; half-life [6]: 58.2 min
